Data reported in US11739064B2, “HDAC inhibitors and therapeutic methods using the same” (THE BOARD OF TRUSTEES OF THE UNIVERSITY OF ILLINOIS, priority 2015, dated 2023).

Key:
BxPC3 = assay: In vitro growth inhibition (GI), MTS cell proliferation assay (Table 5), BxPC3; type: cell-based; settings: Homo sapiens, BXPC-3, 72 hours post-treatment
HDAC5 = HDAC5 (Homo sapiens, UniProt Q9UQL6); assay: HDAC isoform inhibition, HDAC5; type: biochemical
Human HDAC6 = target: T1, Human HDAC6 (Homo sapiens, UniProt Q9UBN7); assay: In vitro HDAC inhibition assay, HDAC6; type: biochemical; settings: read-out: HDAC isoform IC50, HDAC6
T1 construct: Full length with N-terminal GST tag, MW=159 kDa; GST (N); host or cells: baculovirus expression system, Sf9 cells
T1 sequence (Q9UBN7 1-1215): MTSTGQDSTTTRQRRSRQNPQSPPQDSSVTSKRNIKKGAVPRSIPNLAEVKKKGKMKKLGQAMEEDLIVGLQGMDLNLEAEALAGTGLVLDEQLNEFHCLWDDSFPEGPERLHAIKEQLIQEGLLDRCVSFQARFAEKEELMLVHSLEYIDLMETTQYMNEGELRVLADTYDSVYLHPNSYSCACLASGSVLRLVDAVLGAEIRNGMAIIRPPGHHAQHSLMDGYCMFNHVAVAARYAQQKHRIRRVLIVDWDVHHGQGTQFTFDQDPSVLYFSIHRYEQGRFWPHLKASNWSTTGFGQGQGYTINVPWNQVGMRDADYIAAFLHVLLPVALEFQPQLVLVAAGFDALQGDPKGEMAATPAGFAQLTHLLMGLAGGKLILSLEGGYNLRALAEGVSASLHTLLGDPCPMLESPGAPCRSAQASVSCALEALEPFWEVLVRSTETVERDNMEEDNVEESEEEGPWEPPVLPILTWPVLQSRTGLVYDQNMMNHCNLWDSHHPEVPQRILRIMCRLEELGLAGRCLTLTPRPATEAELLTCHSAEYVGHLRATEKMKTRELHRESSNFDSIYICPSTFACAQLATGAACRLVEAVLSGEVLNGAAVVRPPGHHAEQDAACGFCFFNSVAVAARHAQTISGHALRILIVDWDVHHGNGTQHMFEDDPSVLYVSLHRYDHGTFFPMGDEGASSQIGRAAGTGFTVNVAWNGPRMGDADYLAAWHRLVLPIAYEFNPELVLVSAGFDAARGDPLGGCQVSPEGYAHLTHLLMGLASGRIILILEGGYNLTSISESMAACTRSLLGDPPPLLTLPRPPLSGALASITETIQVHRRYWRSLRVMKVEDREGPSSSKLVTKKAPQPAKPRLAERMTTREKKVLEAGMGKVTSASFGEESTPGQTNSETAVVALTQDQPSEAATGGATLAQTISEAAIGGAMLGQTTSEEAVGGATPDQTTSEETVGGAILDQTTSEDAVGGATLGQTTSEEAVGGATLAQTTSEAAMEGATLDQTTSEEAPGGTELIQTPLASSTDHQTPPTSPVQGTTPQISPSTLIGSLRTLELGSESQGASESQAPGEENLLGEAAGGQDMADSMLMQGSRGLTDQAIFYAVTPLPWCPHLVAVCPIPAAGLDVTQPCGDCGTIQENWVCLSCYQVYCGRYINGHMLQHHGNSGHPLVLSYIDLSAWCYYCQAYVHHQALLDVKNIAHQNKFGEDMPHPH

HDAC3/NcoR2 complex = HDAC3/NcoR2 complex (Homo sapiens, UniProt O15379); assay: In vitro HDAC inhibition assay, HDAC3; type: biochemical
HDAC9 = HDAC9 (Homo sapiens, UniProt Q9UKV0); assay: HDAC isoform inhibition, HDAC9; type: biochemical
HDAC7 = target: T2, HDAC7 (Homo sapiens, UniProt Q8WUI4); assay: HDAC isoform inhibition, HDAC7; type: biochemical
T2 sequence (Q8WUI4 1-952): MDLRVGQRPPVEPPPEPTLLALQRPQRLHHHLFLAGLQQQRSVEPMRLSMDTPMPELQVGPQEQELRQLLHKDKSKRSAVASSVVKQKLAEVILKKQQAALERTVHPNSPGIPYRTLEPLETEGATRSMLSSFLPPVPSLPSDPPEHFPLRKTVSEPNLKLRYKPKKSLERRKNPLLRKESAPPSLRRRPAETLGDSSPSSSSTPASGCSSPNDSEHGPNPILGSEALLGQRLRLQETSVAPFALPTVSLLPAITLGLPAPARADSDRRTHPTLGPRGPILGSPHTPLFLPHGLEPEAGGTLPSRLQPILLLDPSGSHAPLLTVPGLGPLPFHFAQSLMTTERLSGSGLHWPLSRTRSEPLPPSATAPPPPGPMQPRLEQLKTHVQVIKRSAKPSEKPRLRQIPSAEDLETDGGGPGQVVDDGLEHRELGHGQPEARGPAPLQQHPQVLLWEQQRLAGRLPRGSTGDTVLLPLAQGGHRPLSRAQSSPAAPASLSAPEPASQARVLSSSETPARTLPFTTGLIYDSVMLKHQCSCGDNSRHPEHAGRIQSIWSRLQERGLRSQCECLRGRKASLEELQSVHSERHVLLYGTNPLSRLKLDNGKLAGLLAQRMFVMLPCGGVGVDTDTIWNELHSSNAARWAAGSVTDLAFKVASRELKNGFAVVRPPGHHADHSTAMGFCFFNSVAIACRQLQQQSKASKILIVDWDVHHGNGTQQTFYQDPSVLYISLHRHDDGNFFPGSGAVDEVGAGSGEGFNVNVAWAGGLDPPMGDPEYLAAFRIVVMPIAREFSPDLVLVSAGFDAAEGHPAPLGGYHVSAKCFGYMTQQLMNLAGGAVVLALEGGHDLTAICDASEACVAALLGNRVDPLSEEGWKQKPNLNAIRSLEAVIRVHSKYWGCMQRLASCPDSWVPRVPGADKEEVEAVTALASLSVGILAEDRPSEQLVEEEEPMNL

Human HDAC1 = Human HDAC1 (Homo sapiens, UniProt Q13547); assay: In vitro HDAC inhibition assay, HDAC1; settings: read-out: HDAC isoform IC50, HDAC1; NI = No inhibition at a concentration of 50 pM (footnote b)
Chain of Human HDAC1 (Q13547 whole entry, canonical isoform): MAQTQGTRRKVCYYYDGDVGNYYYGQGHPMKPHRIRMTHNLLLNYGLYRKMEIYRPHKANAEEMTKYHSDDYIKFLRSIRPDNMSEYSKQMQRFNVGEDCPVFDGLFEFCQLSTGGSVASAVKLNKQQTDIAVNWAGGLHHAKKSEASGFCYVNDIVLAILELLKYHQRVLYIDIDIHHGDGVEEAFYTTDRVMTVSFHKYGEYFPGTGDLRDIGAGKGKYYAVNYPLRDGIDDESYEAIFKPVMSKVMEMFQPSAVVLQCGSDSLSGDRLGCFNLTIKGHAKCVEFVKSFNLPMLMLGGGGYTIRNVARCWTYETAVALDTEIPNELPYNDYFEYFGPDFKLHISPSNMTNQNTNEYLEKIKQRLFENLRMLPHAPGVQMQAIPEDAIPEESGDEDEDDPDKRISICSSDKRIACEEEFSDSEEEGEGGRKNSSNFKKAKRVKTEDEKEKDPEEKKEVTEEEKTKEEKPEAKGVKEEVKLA

Chain of HDAC3/NcoR2 complex (O15379 whole entry, canonical isoform): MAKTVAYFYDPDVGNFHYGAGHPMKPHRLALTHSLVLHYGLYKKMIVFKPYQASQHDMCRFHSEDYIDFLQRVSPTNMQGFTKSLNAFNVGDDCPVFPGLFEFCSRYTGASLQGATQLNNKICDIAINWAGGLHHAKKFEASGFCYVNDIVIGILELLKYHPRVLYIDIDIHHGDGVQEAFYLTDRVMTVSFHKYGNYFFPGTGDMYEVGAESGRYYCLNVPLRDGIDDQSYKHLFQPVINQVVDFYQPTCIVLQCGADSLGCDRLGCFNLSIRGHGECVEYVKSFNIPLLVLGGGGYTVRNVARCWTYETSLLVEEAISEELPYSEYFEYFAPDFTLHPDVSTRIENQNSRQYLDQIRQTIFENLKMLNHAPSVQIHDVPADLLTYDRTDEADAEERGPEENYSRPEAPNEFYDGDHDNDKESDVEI
Chain of HDAC3/NcoR2 complex (Q9Y618 395-489 partner limits assumed): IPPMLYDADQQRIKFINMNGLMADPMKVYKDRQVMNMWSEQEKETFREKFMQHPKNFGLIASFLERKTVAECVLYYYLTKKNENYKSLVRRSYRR
Chain of HDAC9 (Q9UKV0 whole entry, canonical isoform): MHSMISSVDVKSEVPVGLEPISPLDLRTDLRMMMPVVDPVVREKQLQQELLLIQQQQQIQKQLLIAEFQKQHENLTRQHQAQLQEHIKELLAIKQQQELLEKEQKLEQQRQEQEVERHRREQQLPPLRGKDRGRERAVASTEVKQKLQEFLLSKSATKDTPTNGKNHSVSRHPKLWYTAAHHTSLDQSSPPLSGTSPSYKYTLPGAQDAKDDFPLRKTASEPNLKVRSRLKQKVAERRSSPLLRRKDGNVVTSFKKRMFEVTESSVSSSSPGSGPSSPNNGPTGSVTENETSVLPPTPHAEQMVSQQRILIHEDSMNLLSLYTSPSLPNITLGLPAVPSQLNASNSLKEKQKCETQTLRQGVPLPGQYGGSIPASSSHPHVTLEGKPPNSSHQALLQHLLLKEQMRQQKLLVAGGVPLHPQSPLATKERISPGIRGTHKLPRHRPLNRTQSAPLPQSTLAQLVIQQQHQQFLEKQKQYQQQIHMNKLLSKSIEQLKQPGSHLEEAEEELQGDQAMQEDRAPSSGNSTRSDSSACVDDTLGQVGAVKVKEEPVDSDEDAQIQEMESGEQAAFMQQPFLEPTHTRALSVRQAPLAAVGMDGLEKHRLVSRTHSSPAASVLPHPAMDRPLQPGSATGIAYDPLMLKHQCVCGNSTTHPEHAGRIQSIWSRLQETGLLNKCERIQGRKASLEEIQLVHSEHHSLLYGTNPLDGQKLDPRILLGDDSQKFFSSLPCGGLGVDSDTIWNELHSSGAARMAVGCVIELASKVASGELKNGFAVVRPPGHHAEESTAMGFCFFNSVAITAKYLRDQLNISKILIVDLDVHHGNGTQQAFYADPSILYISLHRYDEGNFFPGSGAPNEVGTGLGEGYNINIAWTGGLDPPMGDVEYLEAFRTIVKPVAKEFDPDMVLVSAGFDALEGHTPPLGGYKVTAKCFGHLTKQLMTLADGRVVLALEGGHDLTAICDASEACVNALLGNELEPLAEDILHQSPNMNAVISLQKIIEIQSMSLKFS
Chain of HDAC5 (Q9UQL6 whole entry, canonical isoform): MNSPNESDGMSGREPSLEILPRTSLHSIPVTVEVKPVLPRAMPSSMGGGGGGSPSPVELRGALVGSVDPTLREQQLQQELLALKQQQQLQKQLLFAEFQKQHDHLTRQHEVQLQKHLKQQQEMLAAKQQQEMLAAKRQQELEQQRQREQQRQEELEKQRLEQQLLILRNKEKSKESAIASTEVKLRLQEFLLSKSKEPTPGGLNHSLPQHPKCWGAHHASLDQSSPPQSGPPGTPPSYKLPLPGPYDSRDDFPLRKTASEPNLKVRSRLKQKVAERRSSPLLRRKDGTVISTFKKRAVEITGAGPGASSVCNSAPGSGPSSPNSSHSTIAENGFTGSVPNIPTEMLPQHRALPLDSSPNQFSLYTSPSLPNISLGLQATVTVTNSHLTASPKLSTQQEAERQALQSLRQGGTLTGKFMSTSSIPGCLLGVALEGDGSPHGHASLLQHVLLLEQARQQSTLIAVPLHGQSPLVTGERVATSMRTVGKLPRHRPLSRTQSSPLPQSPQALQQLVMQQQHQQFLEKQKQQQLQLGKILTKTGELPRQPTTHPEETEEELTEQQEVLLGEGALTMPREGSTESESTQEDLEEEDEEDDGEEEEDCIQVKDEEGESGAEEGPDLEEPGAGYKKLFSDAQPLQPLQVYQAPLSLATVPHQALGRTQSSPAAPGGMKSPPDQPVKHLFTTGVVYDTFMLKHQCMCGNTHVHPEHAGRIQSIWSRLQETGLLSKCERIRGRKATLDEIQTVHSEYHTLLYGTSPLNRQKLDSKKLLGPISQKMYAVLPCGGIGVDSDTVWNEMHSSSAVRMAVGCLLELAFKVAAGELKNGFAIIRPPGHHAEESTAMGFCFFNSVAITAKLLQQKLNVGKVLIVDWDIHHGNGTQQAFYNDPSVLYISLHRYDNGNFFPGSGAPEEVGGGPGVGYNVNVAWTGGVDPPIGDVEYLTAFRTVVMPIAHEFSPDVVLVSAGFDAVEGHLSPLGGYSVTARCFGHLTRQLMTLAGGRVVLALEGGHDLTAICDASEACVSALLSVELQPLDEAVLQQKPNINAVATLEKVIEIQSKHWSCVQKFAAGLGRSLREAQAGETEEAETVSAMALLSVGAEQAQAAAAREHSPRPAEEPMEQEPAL

GI50 (BxPC3): 29 µM
IC50 (HDAC5): 34.5 µM
Selectivity for HDAC6 (fold) over HDAC5 (HDAC5): 5750 fold
IC50 (Human HDAC6): 0.006 µM
Selectivity for HDAC6 (fold) over HDAC3 (HDAC3/NcoR2 complex): 3800 fold
IC50 (HDAC3/NcoR2 complex; NI = No inhibition at a concentration of 50 pM (footnote b), read-out: HDAC isoform IC50, HDAC3): 22.8 µM
IC50 (HDAC9): 12.8 µM
Selectivity for HDAC6 (fold) over HDAC9 (HDAC9): 2130 fold
IC50 (HDAC7): 105 µM
Selectivity for HDAC6 (fold) over HDAC7 (HDAC7): 17500 fold
IC50 (Human HDAC1): 16.9 µM
SMILES: CC(C)(C)OC(=O)Nc1ccc(-c2cc(C(=O)NCCc3cc(C(=O)NO)no3)no2)cc1 [Compound 6, (4-{3-[2-(3-Hydroxycarbamoyl-isoxazol-5-yl)-ethylcarbamoyl]-isoxazol-5-yl}-phenyl)-carbamic acid tert-butyl ester]
